Measurements published in patent US5952328A, “Benzothiazo and related heterocyclic group-containing cysteine and serine protease inhibitors” (Cephalon, Inc., priority 1997, dated 1999).
Where two headings read alike, the source gives them in different places.

Target: T1, Calpain I (Homo sapiens, UniProt P07384)
T1 construct: made in house
T1 sequence (P07384 1-714): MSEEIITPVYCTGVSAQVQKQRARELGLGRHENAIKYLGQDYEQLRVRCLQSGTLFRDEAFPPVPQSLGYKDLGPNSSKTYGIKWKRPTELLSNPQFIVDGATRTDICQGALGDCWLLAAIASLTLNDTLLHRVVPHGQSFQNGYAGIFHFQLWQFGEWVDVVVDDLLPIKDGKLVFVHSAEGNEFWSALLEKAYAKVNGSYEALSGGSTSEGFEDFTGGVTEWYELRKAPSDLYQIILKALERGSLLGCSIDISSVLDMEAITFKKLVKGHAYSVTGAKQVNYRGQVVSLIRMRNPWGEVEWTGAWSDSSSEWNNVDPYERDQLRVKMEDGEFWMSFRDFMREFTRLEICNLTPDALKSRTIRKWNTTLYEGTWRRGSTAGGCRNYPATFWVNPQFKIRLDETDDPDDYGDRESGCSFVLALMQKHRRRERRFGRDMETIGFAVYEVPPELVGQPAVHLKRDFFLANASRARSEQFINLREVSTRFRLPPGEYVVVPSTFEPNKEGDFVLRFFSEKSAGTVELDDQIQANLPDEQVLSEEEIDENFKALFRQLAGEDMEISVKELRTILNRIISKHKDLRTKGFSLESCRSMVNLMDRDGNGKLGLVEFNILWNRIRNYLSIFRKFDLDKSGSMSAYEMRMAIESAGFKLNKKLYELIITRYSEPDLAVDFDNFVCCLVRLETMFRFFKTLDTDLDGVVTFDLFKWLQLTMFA
T1 sequence (P04632 1-268 partner): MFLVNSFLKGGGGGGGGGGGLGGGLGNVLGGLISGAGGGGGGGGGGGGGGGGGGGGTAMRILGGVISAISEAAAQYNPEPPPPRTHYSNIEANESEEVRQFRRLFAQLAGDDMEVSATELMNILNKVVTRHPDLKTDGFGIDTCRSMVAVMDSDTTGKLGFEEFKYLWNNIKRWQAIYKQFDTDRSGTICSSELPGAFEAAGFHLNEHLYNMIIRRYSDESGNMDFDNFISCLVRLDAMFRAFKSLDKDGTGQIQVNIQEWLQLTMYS
Assay: Inhibition of calpain I activity (Succ-Leu-Tyr-MNA substrate hydrolysis, fluorescence)
Format: biochemical
Details: calpain I, 0.2 mM Succ-Leu-Tyr-MNA, pH 7.5, read-out: IC50
Procedure: To evaluate inhibitory activity, stock solutions (40 times concentrated) of each compound to be tested were prepared in 100% anhydrous DMSO and […] of each inhibitor preparation were aliquoted into each of three wells of a 96-well plate. Calpain I, prepared by a modification of the method of W. J. Lee et al. (Biochem. […] To start the reaction, […] of 50 mM CaCl2 in assay buffer was added to each of the wells of the plate, excepting three, which were used as background signal baseline controls. Substrate hydrolysis was monitored every 5 minutes for a total of 30 minutes using a Fluoroskan II fluorescence plate reader. […] Inhibition of calpain I activity was calculated as the percent decrease in the rate of substrate hydrolysis in the presence of inhibitor relative to the rate in its absence. Comparison between the inhibited and control rates was made within the linear range for substrate hydrolysis. For screening, compounds were tested at […]. […] The results were plotted as percent inhibition versus log inhibitor concentration, and the IC50 was calculated from linear regression of the data.

[1] = Table II, * mixture of diastereomers, a,b single diastereomers
[2] = Table III, * mixture of diastereomers, a,b single diastereomers
[3] = Table V, * mixture of diastereomers, a,b single diastereomers

Compound `CN1C(C(=O)N[C@H](C=O)Cc2ccccc2)Cc2cc(Cl)ccc2S1(=O)=O` (stereo partly drawn) [Cpd 12q, N-(6-Chloro-3,4-dihydro-2-methyl-2H-1,2-benzothiazine-3-carbonyl)-L-phenylalaninal 1,1-dioxide] has an IC50 [1] of 15 nM.

`CCN1C(C(=O)N[C@@H](Cc2ccccc2)C(=O)C(=O)NCCCNS(=O)(=O)c2ccc(F)cc2)Cc2cc3c(cc2S1(=O)=O)OCCO3` (stereo partly drawn) [Cpd 14Z, 3-((3,4-Dihydro-6,7-ethylenedioxy-2-ethyl-2H-1,2-benzothiazine-3-carbonyl)amino)-3-(S)-benzyl-2-oxo-N-(3-(4-fluorobenzenesulfonylamino)propyl)propanamide 1,1-dioxide] showed an IC50 [2] of 50 nM.

`COc1cc2c(cc1OC)S(=O)(=O)N(C)C(C(=O)N[C@H](C=O)Cc1ccccc1)C2` (stereo partly drawn) [Cpd 12f, N-(3,4-Dihydro-6,7-dimethoxy-2-methyl-2H-1,2-benzothiazine-3-carbonyl)-L-phenylalaninal 1,1-dioxide] showed an IC50 [1] of 38 nM.

`COc1cc2c(cc1OC)S(=O)(=O)OC(C(=O)N[C@H](C=O)Cc1ccccc1)C2` (stereo partly drawn) [Cpd 12b, N-(3,4-Dihydro-6,7-dimethoxy-2,1-benzoxathiin-3-carbonyl)-L-phenylalaninal 1,1-dioxide] gave an IC50 [1] of 51 nM.

With `O=C(NCCNS(=O)(=O)c1ccccc1)C(=O)[C@H](Cc1ccccc1)NC(=O)C1Cc2cc3c(cc2S(=O)(=O)N1)OCCO3` (stereo partly drawn) [Cpd 14AE, N-(2-(Benzenesulfonylamino)ethyl)-3-(3,4-Dihydro-6,7-ethylenedioxy-2H-1,2-benzothiazine-3-carboxamido)-2-oxo-3-(S)-benzylpropanamide 1,1-dioxide] the IC50 [2] was 76 nM.

`CCCN1c2ccccc2S(=O)(=O)N(CC)C1C(=O)N[C@H](C=O)Cc1ccccc1` (single isomer, unassigned) [Cpd 35b, N-(3,4-Dihydro-2-ethyl-4-propyl-2H-1,2,4-benzothiadiazine-3-carbonyl)-L-phenylalaninal 1,1-dioxide] was tested, and the IC50 [3] was ~3000 nM.

`COC1=C(C(=O)N[C@H](C=O)Cc2ccccc2)N(C)S(=O)(=O)c2ccccc21` [Cpd 26d, N-(2-Methyl-4-methoxy-2H-1,2-benzothiazine-3-carbonyl)-L-phenylalaninal 1,1-dioxide] was tested, and the IC50 (Table IV) was 37 nM.

`CCN1C(C(=O)N[C@H](C=O)Cc2ccccc2)N(Cc2ccccc2)c2ccccc2S1(=O)=O` (single isomer, unassigned) [Cpd 35c, N-(3,4-Dihydro-2-ethyl-4-benzyl-2H-1,2,4-benzothiadiazine-3-carbonyl)-L-phenylalaninal 1,1-dioxide] was tested, and the IC50 [3] was ~10000 nM.

Compound `CCN1C(C(=O)N[C@@H](Cc2ccccc2)C(=O)C(=O)NCCNS(=O)(=O)c2ccc(-c3ccccn3)s2)Cc2cc3c(cc2S1(=O)=O)OCCO3` (stereo partly shown) [Cpd 14Y] has an IC50 [2] of 20 nM.

Work on `O=C[C@H](Cc1ccccc1)NC(=O)C1Cc2ccccc2C(=O)N1` (single isomer, unassigned) [Cpd 50b, N-(1-Oxo-1,2,3,4-tetrahydroisoquinoline-3-carbonyl)-L-phenylalaninal] yielded an IC50 (Table VII, a,b single diastereomers) of ~5000 nM.

Compound `CCCCNC(=O)C(=O)[C@H](Cc1ccccc1)NC(=O)C1=Nc2cc3c(cc2S(=O)(=O)N1)OCCO3` [Cpd 42d, 3-((2H-6,7-Ethylenedioxy-1,2,4-benzothiadiazine-3-carbonyl)amino)-3-(S)-benzyl-2-oxo-N-butylpropanamide 1,1-dioxide] has an IC50 (Table VI) of ~10000 nM.

For `COc1cc2c(cc1OC)S(=O)(=O)N(Cc1ccccc1)C(C(=O)N[C@H](C=O)Cc1ccccc1)C2` (stereo partly drawn) [Cpd 12g, N-(2-Benzyl-3,4-dihydro-6,7-dimnethoxy-2H-1,2-benzothiazine-3-carbonyl)-L-phenylalaninal 1,1-dioxide], the IC50 [1] was ~1000 nM.

In the case of `CCCCNC(=O)C(=O)[C@H](Cc1ccccc1)NC(=O)C1=C(O)c2ccccc2S(=O)(=O)N1C` [Cpd 27h, 3-((4-Hydroxy-2-methyl-2H-1,2-benzothiazine-3-carbonyl)amino)-3-(S)-benzyl-2-oxo-N-butylpropanamide 1,1-dioxide], the IC50 (Table IV) is reported as ~10000 nM.
